Results taken from US11400106B2, “Methods for inhibiting microbe growth” (priority 2018, dated 2022).
Where two headings read alike, the source gives them in different places.

Experiments:
E. coli [1] = assay: microbe, parasite or virus in culture; type: cell-based, Escherichia coli
S. aureus = assay: microbe, parasite or virus in culture; settings: for MIC: Staphylococcus aureus
E. coli [2] = assay: Gentamicin potency analysis with CCCP pre-treatment; type: cell-based, Escherichia coli; settings: 25 mM sodium bicarbonate, CCCP pre-treated cells
Description: In the following experiments, bacterial cells were cultured in 96-well microtiter plates in cation-adjusted Mueller-Hinton Broth (MHB) for 18 h at 37° C. The main strains used were E. coli (K-12 BW25113) (placed in stationary incubator) and S. aureus (Newman Strain) (incubated at 250 r.p.m). […] For MIC determination and checkerboard analyses, Clinical & Laboratory Standards Institute (CLSI) protocol was used. […] DiSC3 loading of S. aureus cells was performed as previously described (Farha et al., Collapsing the proton motive force to identify synergistic combinations against Staphylococcus aureus. Chemistry & biology 20, 1168-1178, doi:10.1016/j.chembiol.2013.07.006 (2013)). CCCP concentration of 20 μM was used. pH adjustments were made by addition of HCl or NaOH. INT assay and ATP bioluminescence assays were performed as previously described (Farha et al., Collapsing the proton motive force to identify synergistic combinations against Staphylococcus aureus. Chemistry & biology 20, 1168-1178, doi:10.1016/j.chembiol.2013.07.006 (2013)). For chemical-genomic studies, the Keio library was grown overnight in cation-adjusted MHB broth, in 384-well plates. […]

A. baumannii [3] = assay: Superficial skin infection model, tape-stripped mice, A. baumannii; type: in vivo, Acinetobacter baumannii; settings: 0.5% pentamidine topical, tissue collected 25 hr post-infection
Description: (§1) In this model, an infection is established by disrupting the skin barrier through partial removal of the epidermal layer by stripping with adhesive tape and with subsequent application of the pathogen. Tape-stripped mice infected with 4×10^6 CFU/mL A. baumannii (FIG. 4A) or 4×10^6 CFU/mL methicillin-resistant Staphylococcus aureus (MRSA) USA-300 (FIG. 4B). […] This treatment regime was also conducted for the Vehicle (1.9% Boric Acid, pH 7) as a control (n=4). Tissue samples were collected at 25 hr post-infection (FIG. 4A) and 28 hr post-infection (FIG. 4B). […] (FIG. 5).

Saccharomyces cerevisiae = assay: MIC of pentamidine against Saccharomyces cerevisiae in YPD medium; type: cell-based
Description: Plates were incubated 24 hours and optical density read at 600 nm

E. coli MC1061 = assay: Membrane potential dissipation, DiSC3(5) fluorescence spectroscopy; type: cell-based, Escherichia coli; settings: E. coli grown in standard growth media or supplemented with 25 mM sodium bicarbonate; compound at MIC
Description: E. coli MC1061 cells were washed twice and suspended in a buffer containing 20 mM glucose and 5 mM HEPES (pH 7.2). Final resuspension was diluted to an optical density at 600 nm of 0.085. DiSC3(5) was added at a final concentration of 1 and the dye was left to stabilize (1 hr at 37° C.). Compounds were then injected at concentrations equivalent to their MIC. Fluorescent traces were measured in a fluorimeter (Photon Technology International) at the excitation and emission wavelengths of 622 and 660 nm, respectively.
Briefly, due to the potential gradient, the dye is taken up by bacteria and accumulation in the membrane leads to a decrease in fluorescence intensity due to self-quenching. A subsequent increase in fluorescence intensity is observed only if the dye is displaced into the solution as a result of dissipation of the membrane potential.

E. coli [4] = assay: Checkerboard microdilution with sodium bicarbonate against E. coli; type: cell-based, Escherichia coli
Description: (§2) In the following experiments, bacterial cells were cultured in 96-well microtiter plates in cation-adjusted Mueller-Hinton Broth (MHB) for 18 h at 37° C. The main strains used were E. coli (K-12 BW25113) (placed in stationary incubator) and S. aureus (Newman Strain) (incubated at 250 r.p.m). Knockout strains (ΔtolcC and ΔychM) were used from the Keio knockout collection (Baba et al., Construction of Escherichia coli K-12 in-frame, single-gene knockout mutants: the Keio collection. Mol Syst Biol 2, 2006 0008, doi:10.1038/msb4100050 (2006)). For MIC determination and checkerboard analyses, Clinical & Laboratory Standards Institute (CLSI) protocol was used. […] DiSC3 loading of S. aureus cells was performed as previously described (Farha et al., Collapsing the proton motive force to identify synergistic combinations against Staphylococcus aureus. Chemistry & biology 20, 1168-1178, doi:10.1016/j.chembiol.2013.07.006 (2013)). CCCP concentration of 20 μM was used. pH adjustments were made by addition of HCl or NaOH. INT assay and ATP bioluminescence assays were performed as previously described (Farha et al., Collapsing the proton motive force to identify synergistic combinations against Staphylococcus aureus. Chemistry & biology 20, 1168-1178, doi:10.1016/j.chembiol.2013.07.006 (2013)). For chemical-genomic studies, the Keio library was grown overnight in cation-adjusted MHB broth, in 384-well plates. From these, treatment plates (25 mM sodium bicarbonate, or a sterile water control) were inoculated and grown for 15 hours at 37° C., in a stationary incubator. Data was normalized according to Mangat et al (Mangat et al., Rank ordering plate data facilitates data visualization and normalization in high-throughput screening. J Biomol Screen 19, 1314-1320, doi:10.1177/1087057114534298 (2014)), with gene products and GO terms mined from EcoCyc. The GFP promoter library (Keseler et al., EcoCyc: fusing model organism databases with systems biology. Nucleic Acids Res 41, D605-612, doi:10.1093/nar/gks1027 (2013)) was grown for 18 hours at ambient temperature with the same inoculation strategy as with the Keio collection. The analysis pipeline of Zaslaver et al (Zaslaver et al., A comprehensive library of fluorescent transcriptional reporters for Escherichia coli. Nat Methods 3, 623-628, doi:10.1038/nmeth895 (2006)) was used to generate maps of promoter activity, from which lists of promoters with increased or decreased activity were compiled.
The effect of sodium bicarbonate on the activity of various antibacterial agents was investigated. Clinical isolates of various bacteria were obtained from the American Type Culture Collection (“ATCC”) and the International Health Management Associates (“IHMA”). Fractional inhibitory concentration indices (FICIs) were determined by setting up standard checkerboard broth microdilution assays in 96-well microtiter plates with serially diluted 8 (or 10) concentrations of each drug (sodium bicarbonate and the antibacterial agent). The protocol for checkerboard analyses was based on the CLSI guidelines. Plates were incubated at 37° C. for 18 hours, and optical density was read at 600 nm. At least 3 replicates were done for each query compound.
The FIC index (FICI) is the sum of the two FICs. Chemical-chemical interactions with ΣFIC of less or equal to 0.5 were deemed synergistic.
As validation, three of the antibiotic agents were further tested with checkerboard analyses. Checkerboard broth microdilution assays were set up in 96-well microtiter plates with serially diluted 8 (or 10) concentrations of each compound (sodium bicarbonate and the antibiotic). The protocol for checkerboard analyses was based on the CLSI guidelines. Plates were incubated at 37° C. for 18 hours, and optical density was read at 600 nm. At least 3 replicates were done for each query compound.

A. baumannii [5] = assay: Murine model of systemic A. baumannii infection; type: in vivo, Acinetobacter baumannii; settings: mice
Description: Mice were treated two-hours post-infection to allow complete organ occupancy by the injected cells.

[6] = test system: methicillin-resistant Staphylococcus aureus (MRSA) USA-300; assay: Superficial skin infection model, tape-stripped mice, MRSA USA-300; type: in vivo
Description: as §1

Enterococcus faecalis = assay: MIC determination against Enterococcus faecalis; type: cell-based
Burkhloderia multivorans = assay: MIC determination against Burkhloderia multivorans; type: cell-based
Description: (§3) In the following experiments, bacterial cells were cultured in 96-well microtiter plates in cation-adjusted Mueller-Hinton Broth (MHB) for 18 h at 37° C. The main strains used were E. coli (K-12 BW25113) (placed in stationary incubator) and S. aureus (Newman Strain) (incubated at 250 r.p.m). Knockout strains (ΔtolcC and ΔychM) were used from the Keio knockout collection (Baba et al., Construction of Escherichia coli K-12 in-frame, single-gene knockout mutants: the Keio collection. Mol Syst Biol 2, 2006 0008, doi:10.1038/msb4100050 (2006)). For MIC determination and checkerboard analyses, Clinical & Laboratory Standards Institute (CLSI) protocol was used. […] DiSC3 loading of S. aureus cells was performed as previously described (Farha et al., Collapsing the proton motive force to identify synergistic combinations against Staphylococcus aureus. Chemistry & biology 20, 1168-1178, doi:10.1016/j.chembiol.2013.07.006 (2013)). CCCP concentration of 20 μM was used. pH adjustments were made by addition of HCl or NaOH. INT assay and ATP bioluminescence assays were performed as previously described (Farha et al., Collapsing the proton motive force to identify synergistic combinations against Staphylococcus aureus. Chemistry & biology 20, 1168-1178, doi:10.1016/j.chembiol.2013.07.006 (2013)). […]

Burkhloderia cenocepacia = assay: MIC determination against Burkhloderia cenocepacia; type: cell-based
Description: as §3

Klebsiella pneumoniae = assay: MIC determination against Klebsiella pneumoniae; type: cell-based
Description: as §2, with “The GFP promoter library (Keseler et al., EcoCyc: fusing model organism databases with systems biology. Nucleic Acids Res 41, D605-612, doi:10.1093/nar/gks1027 (2013)) was grown for 18 hours at ambient temperature with the same inoculation strategy as with the Keio collection. The analysis pipeline of Zaslaver et al (Zaslaver et al., A comprehensive library of fluorescent transcriptional reporters for Escherichia coli. Nat Methods 3, 623-628, doi:10.1038/nmeth895 (2006)) was used to generate maps of promoter activity, from which lists of promoters with increased or decreased activity were compiled.” left out

Pseudomonas aeruginosa = assay: MIC determination against Pseudomonas aeruginosa; type: cell-based
Description: as §2, with “The GFP promoter library (Keseler et al., EcoCyc: fusing model organism databases with systems biology. Nucleic Acids Res 41, D605-612, doi:10.1093/nar/gks1027 (2013)) was grown for 18 hours at ambient temperature with the same inoculation strategy as with the Keio collection. The analysis pipeline of Zaslaver et al (Zaslaver et al., A comprehensive library of fluorescent transcriptional reporters for Escherichia coli. Nat Methods 3, 623-628, doi:10.1038/nmeth895 (2006)) was used to generate maps of promoter activity, from which lists of promoters with increased or decreased activity were compiled.” left out

Acinetobacter baumannii = assay: MIC determination against Acinetobacter baumannii; type: cell-based; settings: for MIC: Acinetobacter baumannii
Description: as §2

[7] = read-out: MIC, tissue culture media formulated to mimic the natural environment

Compound: Gentamicin
- Fold, E. coli (E. coli [1]): 8
- Fold, S. aureus (S. aureus): 2
- MIC, S. aureus, MHB− (S. aureus; MHB in the absence of sodium bicarbonate): 2
- MIC, S. aureus, MHB+ (S. aureus; MHB in the presence of 25 mM sodium bicarbonate): 1
- effect of CCCP pre-incubation on potentiation by sodium bicarbonate (E. coli [2]): reversed the potentiation

Compound: N=C(N)c1ccc(OCCCCCOc2ccc(C(=N)N)cc2)cc1 [pentamidine]
- reduction in CFU/mL compared to vehicle-treated mice (A. baumannii [3]): 4 log
- MIC (Saccharomyces cerevisiae; 25 mM sodium bicarbonate): 4 µg/mL
- MIC (Saccharomyces cerevisiae; 50 mM sodium bicarbonate): 2 µg/mL
- MIC (Saccharomyces cerevisiae; no sodium bicarbonate): 256 µg/mL
- potentiation of antibacterial activity in the presence of bicarbonate, on average (Gram-negative organisms): 40 fold
- effect on membrane potential (E. coli MC1061): dissipated the membrane potential
- interaction with sodium bicarbonate (checkerboard) (E. coli [4]): synergistic interaction
- potentiation of antibacterial activity in the presence of bicarbonate, on average (Gram-positive organisms): 50 fold
- rescue of animals (A. baumannii [5]; 50 mg/kg pentamidine IP, single dose 2 h post-infection, in the absence of novobiocin): 80%
- A. baumannii organ load (e.g., spleen) decrease (A. baumannii [5]; pentamidine alone): seven
- reduction in CFU/mL ([6]; 0.5% pentamidine topical, tissue collected 28 hr post-infection): 5 log
- effect of addition of bicarbonate (50 mM) on antibacterial efficacy in clearing an MRSA infection ([6]; topical 0.5% aqueous pentamidine solution with or without bicarbonate (50 mM)): increased the antibacterial efficacy

Compound: N=C(N)c1ccc(OCCCCCOc2ccc(C(=N)N)cc2)cc1 [pentamidine isethionate]
- MIC, tissue culture media formulated to mimic the natural environment (E. coli [1]; Escherichia coli): 1.5 µg/mL
- MIC (E. coli [1]; Escherichia coli, Mueller Hinton Broth, read-out: MIC, MHB): 200 µg/mL
- MIC (E. coli [1]; Escherichia coli, read-out: MIC, tissue culture media formulated to mimic the natural environment): 1 µg/mL
- MIC (Enterococcus faecalis; read-out: MIC, MHB): 25 µg/mL
- MIC (Enterococcus faecalis; [7]): 3.1 µg/mL
- MIC (Burkhloderia multivorans; read-out: MIC, MHB): > 200 µg/mL
- MIC (Burkhloderia multivorans; [7]): 12.5 µg/mL
- MIC (Burkhloderia cenocepacia; read-out: MIC, MHB): > 200 µg/mL
- MIC (Burkhloderia cenocepacia; [7]): 12.5 µg/mL
- MIC (Klebsiella pneumoniae; read-out: MIC, MHB): > 200 µg/mL
- MIC (Klebsiella pneumoniae; [7]): 12.5 µg/mL
- interaction with sodium bicarbonate (checkerboard) (E. coli [4]): greatly potentiated
- MIC (Pseudomonas aeruginosa; read-out: MIC, MHB): > 200 µg/mL
- MIC (Pseudomonas aeruginosa; [7]): 12.5 µg/mL
- enhanced potency in tissue culture media formulated to mimic the natural environment (Acinetobacter baumannii; A. baumannii, versus standard media): > 50 fold
- MIC (Acinetobacter baumannii; read-out: MIC, MHB): 100 µg/mL
- MIC (Acinetobacter baumannii; [7]): 12.5 µg/mL
- MIC (S. aureus; read-out: MIC, MHB): 12.5 µg/mL
- MIC (S. aureus; [7]): < 0.1 µg/mL
